Experimental data from the kinase profiling compilation of Christmann-Franck et al. (2016).

Experiments:
Assay in all cases: KINOMEscan competition binding
Settings in all cases: compound 10.0 µM
PKN2 (human) = PKN2 (human) (UniProt Q16513)
CRK2 (P.falciparum) = CRK2 (P.falciparum) (UniProt P61075)
MAPK9 (human) = MAPK9 (human) (UniProt P45984)
STK3 (human) = STK3 (human) (UniProt Q13188)
MAP3K15 (human) = MAP3K15 (human) (UniProt Q6ZN16)
SNRK (human) = SNRK (human) (UniProt Q9NRH2)
ULK1 (human) = ULK1 (human) (UniProt O75385)
DSTYK (human) = DSTYK (human) (UniProt Q6XUX3)
MET (human) = MET (human) (UniProt P08581)
YSK4 (human) = YSK4 (human) (UniProt Q56UN5)
SRPK2 (human) = SRPK2 (human) (UniProt P78362)
RIPK2 (human) = RIPK2 (human) (UniProt O43353)
LCK (human) = LCK (human) (UniProt P06239)
STK38L (human) = STK38L (human) (UniProt Q9Y2H1)
ROCK2 (human) = ROCK2 (human) (UniProt O75116)
Sequence of ROCK2 (human) (O75116 whole entry, looked up): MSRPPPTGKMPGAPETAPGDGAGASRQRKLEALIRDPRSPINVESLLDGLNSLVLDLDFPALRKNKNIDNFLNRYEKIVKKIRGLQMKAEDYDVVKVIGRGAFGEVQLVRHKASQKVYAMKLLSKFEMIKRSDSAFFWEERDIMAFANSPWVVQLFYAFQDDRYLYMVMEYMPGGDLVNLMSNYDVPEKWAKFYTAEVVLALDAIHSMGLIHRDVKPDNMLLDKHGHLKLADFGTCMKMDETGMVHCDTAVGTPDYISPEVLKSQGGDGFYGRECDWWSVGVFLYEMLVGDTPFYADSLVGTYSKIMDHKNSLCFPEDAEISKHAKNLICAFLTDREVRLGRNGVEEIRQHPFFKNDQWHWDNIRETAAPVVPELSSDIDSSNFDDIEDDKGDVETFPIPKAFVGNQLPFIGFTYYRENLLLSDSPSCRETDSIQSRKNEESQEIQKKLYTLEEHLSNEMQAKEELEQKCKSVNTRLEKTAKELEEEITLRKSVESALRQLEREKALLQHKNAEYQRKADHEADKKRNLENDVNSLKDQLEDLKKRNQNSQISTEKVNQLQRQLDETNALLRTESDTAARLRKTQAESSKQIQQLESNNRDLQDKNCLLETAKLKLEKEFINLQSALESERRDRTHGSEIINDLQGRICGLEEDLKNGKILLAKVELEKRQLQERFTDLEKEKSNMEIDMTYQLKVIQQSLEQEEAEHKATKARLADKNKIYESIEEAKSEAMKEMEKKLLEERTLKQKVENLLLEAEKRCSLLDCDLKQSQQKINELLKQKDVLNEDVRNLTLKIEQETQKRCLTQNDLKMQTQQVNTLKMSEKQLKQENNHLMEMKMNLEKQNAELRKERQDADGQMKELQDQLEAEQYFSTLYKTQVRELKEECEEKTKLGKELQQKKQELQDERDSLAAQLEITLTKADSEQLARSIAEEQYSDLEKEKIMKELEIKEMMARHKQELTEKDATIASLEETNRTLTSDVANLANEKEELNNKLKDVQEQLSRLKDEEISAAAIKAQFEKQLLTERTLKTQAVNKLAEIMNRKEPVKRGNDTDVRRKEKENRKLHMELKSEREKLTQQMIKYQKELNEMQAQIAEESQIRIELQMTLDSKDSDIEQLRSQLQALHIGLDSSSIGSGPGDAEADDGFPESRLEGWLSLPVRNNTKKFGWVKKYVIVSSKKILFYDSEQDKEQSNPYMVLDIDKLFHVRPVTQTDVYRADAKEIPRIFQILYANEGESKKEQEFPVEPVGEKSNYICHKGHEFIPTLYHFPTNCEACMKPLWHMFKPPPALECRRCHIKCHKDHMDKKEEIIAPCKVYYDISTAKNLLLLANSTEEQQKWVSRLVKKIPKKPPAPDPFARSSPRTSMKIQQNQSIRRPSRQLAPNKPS

CLK2 (human) = CLK2 (human) (UniProt P49760)
Sequence of CLK2 (human) (P49760 whole entry, looked up): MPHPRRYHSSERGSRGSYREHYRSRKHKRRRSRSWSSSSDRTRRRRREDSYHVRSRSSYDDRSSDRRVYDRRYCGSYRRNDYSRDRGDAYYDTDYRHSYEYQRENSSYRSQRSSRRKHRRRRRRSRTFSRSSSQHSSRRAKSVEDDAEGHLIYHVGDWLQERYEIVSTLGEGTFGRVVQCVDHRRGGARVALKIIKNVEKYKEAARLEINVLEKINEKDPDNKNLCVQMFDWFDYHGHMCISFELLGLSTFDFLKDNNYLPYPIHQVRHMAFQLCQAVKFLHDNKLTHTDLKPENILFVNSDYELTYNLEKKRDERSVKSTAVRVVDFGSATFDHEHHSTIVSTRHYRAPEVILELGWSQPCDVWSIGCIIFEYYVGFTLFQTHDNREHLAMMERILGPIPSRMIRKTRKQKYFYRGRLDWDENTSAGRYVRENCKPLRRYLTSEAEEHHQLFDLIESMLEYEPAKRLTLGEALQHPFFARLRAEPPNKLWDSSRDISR

STK25 (human) = STK25 (human) (UniProt O00506)
RPS6KA5 KD2 (human) = RPS6KA5 KD2 (human) (UniProt O75582)
IRAK1 (human) = IRAK1 (human) (UniProt P51617)
TGFBR2 (human) = TGFBR2 (human) (UniProt P37173)
[1] = tested on: RET (human), P07949 [V804M]
SRMS (human) = SRMS (human) (UniProt Q9H3Y6)
Sequence of SRMS (human) (Q9H3Y6 whole entry, looked up): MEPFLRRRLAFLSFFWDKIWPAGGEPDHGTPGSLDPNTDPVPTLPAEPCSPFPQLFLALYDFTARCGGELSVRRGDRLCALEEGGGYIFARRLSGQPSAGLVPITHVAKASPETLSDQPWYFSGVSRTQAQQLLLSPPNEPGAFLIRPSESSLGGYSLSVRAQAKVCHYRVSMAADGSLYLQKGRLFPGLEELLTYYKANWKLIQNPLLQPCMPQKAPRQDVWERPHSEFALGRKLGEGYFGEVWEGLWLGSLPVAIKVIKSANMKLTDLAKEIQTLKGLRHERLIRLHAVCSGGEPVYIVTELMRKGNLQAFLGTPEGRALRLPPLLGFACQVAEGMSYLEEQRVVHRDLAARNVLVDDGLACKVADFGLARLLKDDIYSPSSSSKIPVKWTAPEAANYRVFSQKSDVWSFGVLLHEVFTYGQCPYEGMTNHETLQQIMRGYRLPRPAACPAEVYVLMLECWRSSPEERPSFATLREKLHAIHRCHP

CHEK2 (human) = CHEK2 (human) (UniProt O96017)
Sequence of CHEK2 (human) (O96017 whole entry, looked up): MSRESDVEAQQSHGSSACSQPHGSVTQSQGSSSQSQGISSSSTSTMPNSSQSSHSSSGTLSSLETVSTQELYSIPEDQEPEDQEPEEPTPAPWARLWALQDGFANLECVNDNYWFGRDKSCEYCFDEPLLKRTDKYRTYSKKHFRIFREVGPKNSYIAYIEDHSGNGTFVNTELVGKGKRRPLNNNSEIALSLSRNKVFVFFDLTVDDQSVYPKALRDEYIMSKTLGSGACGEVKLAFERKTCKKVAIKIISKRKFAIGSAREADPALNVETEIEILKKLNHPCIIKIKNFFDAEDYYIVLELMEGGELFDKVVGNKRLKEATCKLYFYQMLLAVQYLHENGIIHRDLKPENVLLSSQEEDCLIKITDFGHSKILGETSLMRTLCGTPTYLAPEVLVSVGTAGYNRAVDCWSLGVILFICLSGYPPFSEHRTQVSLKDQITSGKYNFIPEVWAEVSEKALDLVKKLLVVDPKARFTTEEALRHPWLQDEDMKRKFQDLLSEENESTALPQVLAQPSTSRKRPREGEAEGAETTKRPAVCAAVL

PDPK1 (human) = PDPK1 (human) (UniProt O15530)
HIPK2 (human) = HIPK2 (human) (UniProt Q9H2X6)
CDK8 (human) = CDK8 (human) (UniProt P49336)
WEE1 (human) = WEE1 (human) (UniProt P30291)
[2] = tested on: EGFR (human), P00533 [T790M/L858R]
[3] = tested on: KIT (human), P10721 [V559D/V654A]
IRAK4 (human) = IRAK4 (human) (UniProt Q9NWZ3)
Sequence of IRAK4 (human) (Q9NWZ3 whole entry, looked up): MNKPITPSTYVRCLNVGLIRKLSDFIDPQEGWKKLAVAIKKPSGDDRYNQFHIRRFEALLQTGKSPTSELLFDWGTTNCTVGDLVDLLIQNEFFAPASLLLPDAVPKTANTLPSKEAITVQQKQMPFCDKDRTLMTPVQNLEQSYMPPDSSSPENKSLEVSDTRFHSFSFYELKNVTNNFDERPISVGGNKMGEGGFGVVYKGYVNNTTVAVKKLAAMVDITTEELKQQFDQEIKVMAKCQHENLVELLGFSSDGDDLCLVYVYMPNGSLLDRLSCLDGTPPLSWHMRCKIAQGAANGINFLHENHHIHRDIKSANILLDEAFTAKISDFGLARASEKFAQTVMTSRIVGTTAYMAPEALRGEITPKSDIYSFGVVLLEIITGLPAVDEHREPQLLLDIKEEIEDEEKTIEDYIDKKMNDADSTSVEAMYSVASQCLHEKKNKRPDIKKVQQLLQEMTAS

NEK3 (human) = NEK3 (human) (UniProt P51956)
Sequence of NEK3 (human) (P51956 whole entry, looked up): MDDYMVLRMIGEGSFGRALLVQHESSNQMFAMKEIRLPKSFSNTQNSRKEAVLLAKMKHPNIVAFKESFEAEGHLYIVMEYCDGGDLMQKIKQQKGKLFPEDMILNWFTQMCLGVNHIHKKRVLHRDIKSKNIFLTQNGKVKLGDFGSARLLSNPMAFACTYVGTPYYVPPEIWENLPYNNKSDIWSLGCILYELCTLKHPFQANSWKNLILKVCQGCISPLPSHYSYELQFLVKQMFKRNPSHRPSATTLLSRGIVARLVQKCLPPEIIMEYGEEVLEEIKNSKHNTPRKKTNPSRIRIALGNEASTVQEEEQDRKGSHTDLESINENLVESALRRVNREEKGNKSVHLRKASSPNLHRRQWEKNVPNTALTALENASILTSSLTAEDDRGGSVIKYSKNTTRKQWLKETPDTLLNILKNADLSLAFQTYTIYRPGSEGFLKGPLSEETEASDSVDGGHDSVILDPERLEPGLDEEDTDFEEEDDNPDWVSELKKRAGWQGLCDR

RPS6KA3 KD1 (human) = RPS6KA3 KD1 (human) (UniProt P51812)
CDK19 (human) = CDK19 (human) (UniProt Q9BWU1)
FGR (human) = FGR (human) (UniProt P09769)
PDGFRA (human) = PDGFRA (human) (UniProt P16234)
Sequence of PDGFRA (human) (P16234 whole entry, looked up): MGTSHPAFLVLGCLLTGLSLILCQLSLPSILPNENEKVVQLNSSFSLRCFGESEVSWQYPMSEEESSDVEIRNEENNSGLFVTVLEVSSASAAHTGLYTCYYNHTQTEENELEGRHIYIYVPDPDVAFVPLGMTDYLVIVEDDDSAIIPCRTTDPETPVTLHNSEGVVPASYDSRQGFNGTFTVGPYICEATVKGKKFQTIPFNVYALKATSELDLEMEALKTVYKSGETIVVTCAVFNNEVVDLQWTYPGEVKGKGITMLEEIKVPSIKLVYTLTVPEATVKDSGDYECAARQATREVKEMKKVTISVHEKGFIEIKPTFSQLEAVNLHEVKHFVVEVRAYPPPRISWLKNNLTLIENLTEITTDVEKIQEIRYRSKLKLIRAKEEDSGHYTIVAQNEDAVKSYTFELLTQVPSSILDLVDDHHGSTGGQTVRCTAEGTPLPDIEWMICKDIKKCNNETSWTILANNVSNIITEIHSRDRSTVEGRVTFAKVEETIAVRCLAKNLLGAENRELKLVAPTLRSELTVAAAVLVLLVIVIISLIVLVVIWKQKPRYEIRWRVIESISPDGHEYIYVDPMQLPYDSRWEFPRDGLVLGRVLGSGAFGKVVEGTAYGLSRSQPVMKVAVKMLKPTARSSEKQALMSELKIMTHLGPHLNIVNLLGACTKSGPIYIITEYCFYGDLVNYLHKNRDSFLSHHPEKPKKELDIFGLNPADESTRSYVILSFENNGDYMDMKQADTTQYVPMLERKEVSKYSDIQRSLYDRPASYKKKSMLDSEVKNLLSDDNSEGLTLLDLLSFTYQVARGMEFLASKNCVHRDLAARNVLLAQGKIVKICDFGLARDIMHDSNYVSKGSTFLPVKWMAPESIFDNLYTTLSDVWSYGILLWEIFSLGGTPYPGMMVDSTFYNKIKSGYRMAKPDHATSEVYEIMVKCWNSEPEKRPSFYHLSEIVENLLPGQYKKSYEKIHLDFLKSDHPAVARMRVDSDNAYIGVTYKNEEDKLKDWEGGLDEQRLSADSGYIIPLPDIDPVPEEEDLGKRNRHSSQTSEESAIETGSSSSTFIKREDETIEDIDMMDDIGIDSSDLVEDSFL

CDK13 (human) = CDK13 (human) (UniProt Q14004)
MAP2K3 (human) = MAP2K3 (human) (UniProt P46734)
RAF1 (human) = RAF1 (human) (UniProt P04049)
MYLK4 (human) = MYLK4 (human) (UniProt Q86YV6)
SRPK3 (human) = SRPK3 (human) (UniProt Q9UPE1)

SMILES	kinase still bound, per cent of control (PKN2 (human))	kinase still bound, per cent of control (CRK2 (P.falciparum))	kinase still bound, per cent of control (MAPK9 (human))	kinase still bound, per cent of control (STK3 (human))	kinase still bound, per cent of control (MAP3K15 (human))	kinase still bound, per cent of control (SNRK (human))	kinase still bound, per cent of control (ULK1 (human))	kinase still bound, per cent of control (DSTYK (human))	kinase still bound, per cent of control (MET (human))	kinase still bound, per cent of control (YSK4 (human))	kinase still bound, per cent of control (SRPK2 (human))	kinase still bound, per cent of control (RIPK2 (human))	kinase still bound, per cent of control (LCK (human))	kinase still bound, per cent of control (STK38L (human))	kinase still bound, per cent of control (ROCK2 (human))	kinase still bound, per cent of control (CLK2 (human))	kinase still bound, per cent of control (STK25 (human))	kinase still bound, per cent of control (RPS6KA5 KD2 (human))	kinase still bound, per cent of control (IRAK1 (human))	kinase still bound, per cent of control (TGFBR2 (human))	other results
CCN1CCN(C(=O)Cc2ccc(Nc3ncc(F)c(Nc4ccc(C(=O)Nc5ccccc5Cl)cc4)n3)cc2)CC1	100%	100%	0.75%	100%	100%	89%	28%	71%	8.6%	7.2%	11%	19%	6.6%	60%	75%	4.9%	35%	66%	22%	100%	kinase still bound, per cent of control [1]: 4.6%; kinase still bound, per cent of control (SRMS (human)): 58%; kinase still bound, per cent of control (CHEK2 (human)): 70%; kinase still bound, per cent of control (PDPK1 (human)): 96%; kinase still bound, per cent of control (HIPK2 (human)): 5%; kinase still bound, per cent of control (CDK8 (human)): 46%; kinase still bound, per cent of control (WEE1 (human)): 31%; kinase still bound, per cent of control [2]: 76%; kinase still bound, per cent of control [3]: 84%; kinase still bound, per cent of control (IRAK4 (human)): 100%; kinase still bound, per cent of control (NEK3 (human)): 60%; kinase still bound, per cent of control (RPS6KA3 KD1 (human)): 32%; kinase still bound, per cent of control (CDK19 (human)): 76%; kinase still bound, per cent of control (FGR (human)): 43%; kinase still bound, per cent of control (PDGFRA (human)): 38%; kinase still bound, per cent of control (CDK13 (human)): 100%; kinase still bound, per cent of control (MAP2K3 (human)): 57%; kinase still bound, per cent of control (RAF1 (human)): 81%; kinase still bound, per cent of control (MYLK4 (human)): 11%; kinase still bound, per cent of control (SRPK3 (human)): 7.8%
C=CC(=O)Nc1cc(-n2c(=O)ccc3cnc4ccc(-c5cn[nH]c5)cc4c32)ccc1C	82%	100%	9.6%	100%	56%	100%	87%	70%	89%	1.2%	96%	56%	64%	100%	72%	1.6%	70%	75%	41%	82%	kinase still bound, per cent of control [1]: 68%; kinase still bound, per cent of control (SRMS (human)): 75%; kinase still bound, per cent of control (CHEK2 (human)): 87%; kinase still bound, per cent of control (PDPK1 (human)): 100%; kinase still bound, per cent of control (HIPK2 (human)): 48%; kinase still bound, per cent of control (CDK8 (human)): 93%; kinase still bound, per cent of control (WEE1 (human)): 100%; kinase still bound, per cent of control [2]: 18%; kinase still bound, per cent of control [3]: 100%; kinase still bound, per cent of control (IRAK4 (human)): 36%; kinase still bound, per cent of control (NEK3 (human)): 77%; kinase still bound, per cent of control (RPS6KA3 KD1 (human)): 69%; kinase still bound, per cent of control (CDK19 (human)): 100%; kinase still bound, per cent of control (FGR (human)): 57%; kinase still bound, per cent of control (PDGFRA (human)): 21%; kinase still bound, per cent of control (CDK13 (human)): 100%; kinase still bound, per cent of control (MAP2K3 (human)): 8.6%; kinase still bound, per cent of control (RAF1 (human)): 100%; kinase still bound, per cent of control (MYLK4 (human)): 88%; kinase still bound, per cent of control (SRPK3 (human)): 68%
